{
  "source": "paper PMC7486443",
  "about": "“Generation of Phenothiazine with Potent Anti-TLK1 Activity for Prostate Cancer Therapy” (iScience, 2020)",
  "key": {"[1]": {"molecular_target": "TTK (Homo sapiens, UniProt P33981)", "sequence (P33981 whole entry)": "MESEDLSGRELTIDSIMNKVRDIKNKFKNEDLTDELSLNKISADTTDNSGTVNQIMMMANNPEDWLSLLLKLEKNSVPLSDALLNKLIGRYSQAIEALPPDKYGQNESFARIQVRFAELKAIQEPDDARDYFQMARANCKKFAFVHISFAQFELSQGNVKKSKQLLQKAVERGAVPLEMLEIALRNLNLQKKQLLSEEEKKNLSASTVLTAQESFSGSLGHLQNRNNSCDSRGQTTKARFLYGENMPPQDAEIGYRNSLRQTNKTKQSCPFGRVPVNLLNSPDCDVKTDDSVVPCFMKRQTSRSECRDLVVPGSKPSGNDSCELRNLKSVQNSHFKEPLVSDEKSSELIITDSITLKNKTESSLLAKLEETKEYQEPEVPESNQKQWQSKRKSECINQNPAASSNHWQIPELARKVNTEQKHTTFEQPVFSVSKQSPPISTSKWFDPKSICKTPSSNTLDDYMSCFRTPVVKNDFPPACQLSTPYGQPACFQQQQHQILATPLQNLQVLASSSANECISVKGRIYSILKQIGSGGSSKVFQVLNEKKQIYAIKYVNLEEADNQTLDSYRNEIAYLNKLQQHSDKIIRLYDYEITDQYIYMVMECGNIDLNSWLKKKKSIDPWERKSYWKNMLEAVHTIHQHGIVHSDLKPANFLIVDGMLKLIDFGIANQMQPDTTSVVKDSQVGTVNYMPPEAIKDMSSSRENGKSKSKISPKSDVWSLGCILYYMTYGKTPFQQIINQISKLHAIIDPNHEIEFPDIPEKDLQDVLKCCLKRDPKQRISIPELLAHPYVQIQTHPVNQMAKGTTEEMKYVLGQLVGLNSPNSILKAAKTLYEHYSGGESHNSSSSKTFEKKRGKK", "test": "Kinomescan SCANMAX panel at […]", "type": "binding"}, "[2]": {"molecular_target": "LTK (Homo sapiens, UniProt P29376)", "test": "biochemical", "design": "DiscoverX KINOMEscan scanMAX competition binding panel, single concentration, percent of control; dose or concentration left out as unconfirmed", "conditions": "KINOMEscan binding, percent of control; read-out: Table S4_SCANMAX REPORT - related to Fig. 1 / Percent Control", "from_the_text": "(§1) Certain PTH are potent inhibitors of TLK1 ([Ronald et al., 2013]), and by inference TLK2, as these proteins must homo- and hetero-dimerize for full activation ([Mortuza et al., 2018]), in addition to being highly similar in sequence and structure, and thus similarly targetable. […] Two noteworthy observations are that PTHs are structurally different from many known ATP competitive inhibitors, and that J54 was carefully designed based on considerations reported previously for the THD—the Kinomescan has confirmed that J54 is specific to TLKs. We should point out that although PTH were the first reported inhibitors of TLKs ([Ronald et al., 2013]), other inhibitors particularly of TLK2 have since been reported ([Kim et al., 2016]), some based on structure docking ([Mortuza et al., 2018]), although neither their potency and effects in vivo nor their potential off-target effects have not been reported as they were selected from libraries of kinase inhibitors. Supplementary file mmc2.xlsx: Table S4. SCANMAX Table, Related to Figure 1 Kinomescan of J54 inhibitory activity on human kinases."}, "[3]": {"molecular_target": "DYRK1B (Homo sapiens, UniProt Q9Y463)", "test": "biochemical", "design": "DiscoverX KINOMEscan scanMAX competition binding panel, single concentration, percent of control; dose or concentration left out as unconfirmed", "conditions": "KINOMEscan binding, percent of control; read-out: Table S4_SCANMAX REPORT - related to Fig. 1 / Percent Control", "from_the_text": "as §1"}, "[4]": {"molecular_target": "STK33 (Homo sapiens, UniProt Q9BYT3)", "sequence (Q9BYT3 whole entry)": "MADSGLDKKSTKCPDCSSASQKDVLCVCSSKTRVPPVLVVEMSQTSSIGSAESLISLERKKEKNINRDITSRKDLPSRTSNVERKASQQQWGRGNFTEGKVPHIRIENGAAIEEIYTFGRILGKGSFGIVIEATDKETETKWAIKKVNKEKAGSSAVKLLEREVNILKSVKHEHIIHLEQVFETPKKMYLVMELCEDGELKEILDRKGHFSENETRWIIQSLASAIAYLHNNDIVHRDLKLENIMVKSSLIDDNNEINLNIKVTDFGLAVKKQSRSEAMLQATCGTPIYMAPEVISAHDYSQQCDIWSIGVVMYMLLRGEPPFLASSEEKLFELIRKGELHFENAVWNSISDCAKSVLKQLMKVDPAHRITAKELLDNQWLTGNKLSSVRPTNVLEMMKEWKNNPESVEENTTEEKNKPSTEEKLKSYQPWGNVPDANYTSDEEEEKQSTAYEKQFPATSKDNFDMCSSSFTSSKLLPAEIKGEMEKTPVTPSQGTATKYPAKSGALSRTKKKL", "test": "biochemical", "design": "DiscoverX KINOMEscan scanMAX competition binding panel, single concentration, percent of control; dose or concentration left out as unconfirmed", "conditions": "KINOMEscan binding, percent of control; read-out: Table S4_SCANMAX REPORT - related to Fig. 1 / Percent Control", "from_the_text": "as §1"}, "[5]": {"molecular_target": "EGFR(G719S) (Homo sapiens, UniProt P00533, G719S)", "test": "biochemical", "design": "DiscoverX KINOMEscan scanMAX competition binding panel, single concentration, percent of control; remaining binding: dose or concentration left out as unconfirmed", "conditions": "KINOMEscan binding, percent of control; read-out: Table S4_SCANMAX REPORT - related to Fig. 1 / Percent Control"}, "[6]": {"molecular_target": "T1, AMPK-alpha1 (Homo sapiens, UniProt Q13131)", "T1 construct": "gene PRKAA1", "T1 sequence (Q13131 whole entry)": "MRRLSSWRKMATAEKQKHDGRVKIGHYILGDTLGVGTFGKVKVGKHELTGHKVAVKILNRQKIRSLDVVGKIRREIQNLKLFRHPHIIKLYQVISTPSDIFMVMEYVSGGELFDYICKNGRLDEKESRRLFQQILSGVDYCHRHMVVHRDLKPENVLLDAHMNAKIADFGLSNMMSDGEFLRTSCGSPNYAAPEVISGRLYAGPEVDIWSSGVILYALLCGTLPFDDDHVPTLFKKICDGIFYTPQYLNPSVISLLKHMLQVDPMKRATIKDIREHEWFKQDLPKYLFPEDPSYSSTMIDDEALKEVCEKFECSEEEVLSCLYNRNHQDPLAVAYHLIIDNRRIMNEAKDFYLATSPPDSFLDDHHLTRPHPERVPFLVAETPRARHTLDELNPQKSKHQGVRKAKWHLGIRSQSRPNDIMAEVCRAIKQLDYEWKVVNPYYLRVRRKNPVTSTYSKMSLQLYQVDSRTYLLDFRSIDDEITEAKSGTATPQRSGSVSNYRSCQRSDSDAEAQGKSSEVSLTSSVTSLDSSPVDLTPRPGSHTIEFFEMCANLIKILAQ", "test": "biochemical", "design": "DiscoverX KINOMEscan scanMAX competition binding panel, single concentration, percent of control; remaining binding: dose or concentration left out as unconfirmed", "conditions": "KINOMEscan binding, percent of control; read-out: Table S4_SCANMAX REPORT - related to Fig. 1 / Percent Control"}, "[7]": {"molecular_target": "TNNI3K (Homo sapiens, UniProt Q59H18)", "sequence (Q59H18 whole entry)": "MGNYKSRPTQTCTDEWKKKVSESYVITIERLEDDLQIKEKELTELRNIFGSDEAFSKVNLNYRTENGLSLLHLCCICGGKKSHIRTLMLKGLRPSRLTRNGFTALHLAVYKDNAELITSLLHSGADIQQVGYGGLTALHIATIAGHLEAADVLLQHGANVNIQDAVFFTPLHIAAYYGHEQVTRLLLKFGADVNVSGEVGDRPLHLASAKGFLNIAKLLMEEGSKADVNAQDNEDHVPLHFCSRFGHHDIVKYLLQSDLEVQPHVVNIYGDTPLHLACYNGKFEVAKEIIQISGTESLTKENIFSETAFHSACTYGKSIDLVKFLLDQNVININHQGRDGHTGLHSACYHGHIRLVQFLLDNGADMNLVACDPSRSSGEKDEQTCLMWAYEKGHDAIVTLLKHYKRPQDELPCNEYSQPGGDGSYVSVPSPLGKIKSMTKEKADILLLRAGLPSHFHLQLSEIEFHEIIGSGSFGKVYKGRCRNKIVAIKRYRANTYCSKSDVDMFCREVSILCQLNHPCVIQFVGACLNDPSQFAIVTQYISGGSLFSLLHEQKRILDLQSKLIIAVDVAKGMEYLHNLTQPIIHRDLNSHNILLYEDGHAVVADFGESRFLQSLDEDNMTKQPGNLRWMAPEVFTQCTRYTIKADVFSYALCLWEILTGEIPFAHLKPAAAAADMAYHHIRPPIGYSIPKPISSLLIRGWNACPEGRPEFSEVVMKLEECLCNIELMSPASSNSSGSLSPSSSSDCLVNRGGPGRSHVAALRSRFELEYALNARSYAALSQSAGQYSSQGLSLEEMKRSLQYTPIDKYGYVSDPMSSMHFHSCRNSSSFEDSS", "test": "biochemical", "design": "DiscoverX KINOMEscan scanMAX competition binding panel, single concentration, percent of control; remaining binding: dose or concentration left out as unconfirmed", "conditions": "KINOMEscan binding, percent of control; read-out: Table S4_SCANMAX REPORT - related to Fig. 1 / Percent Control"}, "[8]": {"molecular_target": "MAP3K4 (Homo sapiens, UniProt Q9Y6R4)", "sequence (Q9Y6R4 whole entry)": "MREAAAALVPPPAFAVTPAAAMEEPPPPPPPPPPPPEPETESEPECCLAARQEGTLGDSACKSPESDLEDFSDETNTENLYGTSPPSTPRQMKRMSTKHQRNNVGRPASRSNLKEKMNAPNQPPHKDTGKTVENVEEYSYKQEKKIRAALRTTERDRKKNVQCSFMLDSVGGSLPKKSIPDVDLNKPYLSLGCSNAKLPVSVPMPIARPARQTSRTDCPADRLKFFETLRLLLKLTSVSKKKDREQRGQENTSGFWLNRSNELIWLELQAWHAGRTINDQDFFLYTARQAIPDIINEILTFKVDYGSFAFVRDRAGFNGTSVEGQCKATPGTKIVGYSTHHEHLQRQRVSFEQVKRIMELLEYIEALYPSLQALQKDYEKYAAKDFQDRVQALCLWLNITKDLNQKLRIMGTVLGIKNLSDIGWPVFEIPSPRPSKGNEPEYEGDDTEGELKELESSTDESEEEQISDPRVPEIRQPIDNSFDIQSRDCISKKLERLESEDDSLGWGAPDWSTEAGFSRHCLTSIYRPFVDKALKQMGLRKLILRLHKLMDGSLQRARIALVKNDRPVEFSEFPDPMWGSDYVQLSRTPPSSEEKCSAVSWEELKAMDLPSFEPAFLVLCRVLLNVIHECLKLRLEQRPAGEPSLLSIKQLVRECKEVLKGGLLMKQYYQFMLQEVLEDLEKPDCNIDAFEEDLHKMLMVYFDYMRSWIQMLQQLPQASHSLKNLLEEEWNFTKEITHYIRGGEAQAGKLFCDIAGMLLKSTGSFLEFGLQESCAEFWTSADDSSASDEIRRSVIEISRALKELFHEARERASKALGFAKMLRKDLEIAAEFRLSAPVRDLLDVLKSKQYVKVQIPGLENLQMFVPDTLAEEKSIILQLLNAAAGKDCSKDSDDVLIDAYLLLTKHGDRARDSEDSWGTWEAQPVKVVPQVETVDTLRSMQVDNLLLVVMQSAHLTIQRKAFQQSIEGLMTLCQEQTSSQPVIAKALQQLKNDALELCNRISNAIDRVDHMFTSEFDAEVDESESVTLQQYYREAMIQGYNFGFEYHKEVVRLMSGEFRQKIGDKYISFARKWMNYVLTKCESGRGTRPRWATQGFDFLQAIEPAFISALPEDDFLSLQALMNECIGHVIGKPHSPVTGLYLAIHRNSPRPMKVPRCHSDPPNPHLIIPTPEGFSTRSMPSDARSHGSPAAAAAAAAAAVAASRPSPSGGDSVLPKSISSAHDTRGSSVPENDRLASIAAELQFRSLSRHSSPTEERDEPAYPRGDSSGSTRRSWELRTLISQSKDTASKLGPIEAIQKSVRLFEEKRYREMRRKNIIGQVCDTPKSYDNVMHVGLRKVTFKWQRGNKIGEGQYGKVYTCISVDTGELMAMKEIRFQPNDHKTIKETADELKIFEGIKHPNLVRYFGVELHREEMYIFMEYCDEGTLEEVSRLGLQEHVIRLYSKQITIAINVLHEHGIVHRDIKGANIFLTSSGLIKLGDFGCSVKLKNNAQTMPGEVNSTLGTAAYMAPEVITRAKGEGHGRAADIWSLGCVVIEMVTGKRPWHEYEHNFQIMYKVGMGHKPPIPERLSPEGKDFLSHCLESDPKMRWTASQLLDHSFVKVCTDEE", "test": "biochemical", "design": "DiscoverX KINOMEscan scanMAX competition binding panel, single concentration, percent of control; remaining binding: dose or concentration left out as unconfirmed", "conditions": "KINOMEscan binding, percent of control; read-out: Table S4_SCANMAX REPORT - related to Fig. 1 / Percent Control"}, "[9]": {"molecular_target": "CDK5 (Homo sapiens, UniProt Q00535)", "sequence (Q00535 whole entry)": "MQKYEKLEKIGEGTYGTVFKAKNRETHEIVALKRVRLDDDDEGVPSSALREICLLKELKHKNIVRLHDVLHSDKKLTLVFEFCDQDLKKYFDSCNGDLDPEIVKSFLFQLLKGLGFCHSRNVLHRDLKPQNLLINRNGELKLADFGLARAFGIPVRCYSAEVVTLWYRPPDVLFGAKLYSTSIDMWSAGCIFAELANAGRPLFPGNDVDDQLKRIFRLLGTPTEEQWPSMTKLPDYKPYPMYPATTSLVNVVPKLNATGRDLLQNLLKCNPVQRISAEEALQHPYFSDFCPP", "test": "biochemical", "design": "DiscoverX KINOMEscan scanMAX competition binding panel, single concentration, percent of control; remaining binding: dose or concentration left out as unconfirmed", "conditions": "KINOMEscan binding, percent of control; read-out: Table S4_SCANMAX REPORT - related to Fig. 1 / Percent Control"}, "[10]": {"molecular_target": "T2, p38-alpha (Homo sapiens, UniProt Q16539)", "T2 construct": "gene MAPK14", "T2 sequence (Q16539 whole entry)": "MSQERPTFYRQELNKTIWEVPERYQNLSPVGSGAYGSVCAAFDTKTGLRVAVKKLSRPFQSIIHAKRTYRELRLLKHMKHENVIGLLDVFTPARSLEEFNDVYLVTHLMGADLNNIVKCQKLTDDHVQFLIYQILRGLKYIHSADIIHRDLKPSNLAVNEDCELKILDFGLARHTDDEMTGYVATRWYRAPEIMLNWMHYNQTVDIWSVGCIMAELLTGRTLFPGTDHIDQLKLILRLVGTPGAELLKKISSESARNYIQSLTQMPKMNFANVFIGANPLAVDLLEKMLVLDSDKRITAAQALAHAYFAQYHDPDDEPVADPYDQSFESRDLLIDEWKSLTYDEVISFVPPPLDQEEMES", "test": "biochemical", "design": "DiscoverX KINOMEscan scanMAX competition binding panel, single concentration, percent of control; remaining binding: dose or concentration left out as unconfirmed", "conditions": "KINOMEscan binding, percent of control; read-out: Table S4_SCANMAX REPORT - related to Fig. 1 / Percent Control"}},
  "data": [
    {"smiles": "c1ccc2c(c1)Sc1ccccc1N2CCN1CCOCC1", "note": "[J54]", "values": [
      {"measurement": "Kinomescan SCANMAX panel at 15 μM", "setting": "[1]", "value": "little inhibition of all other kinases with the exception of TTK"},
      {"measurement": "remaining binding", "setting": "[2]", "value": 100, "unit": "%"},
      {"measurement": "remaining binding", "setting": "[3]", "value": 54, "unit": "%"},
      {"measurement": "remaining binding", "setting": "[4]", "value": 100, "unit": "%"},
      {"measurement": "remaining binding", "setting": "[5]", "value": 99, "unit": "%"},
      {"measurement": "remaining binding", "setting": "[6]", "value": 100, "unit": "%"},
      {"measurement": "remaining binding", "setting": "[7]", "value": 100, "unit": "%"},
      {"measurement": "remaining binding", "setting": "[8]", "value": 97, "unit": "%"},
      {"measurement": "remaining binding", "setting": "[9]", "value": 99, "unit": "%"},
      {"measurement": "remaining binding", "setting": "[10]", "value": 100, "unit": "%"}
    ]}
  ]
}
